Test results published in US20060035901A1, “Methotrexate derivatives useful for treating cancer and arthritis” (Serenex, Inc., priority 2004, published 2006).
pIC50: −log10 of the molar value.

Assays:
[1] = target: T1, propionyl-CoA carboxylase subunit alpha (PCCA) (Sus scrofa, UniProt P0DTA4); assay: Elution of PCCA from ATP-Sepharose column loaded with porcine liver proteome, IC50 estimate; format: binding; conditions: estimated from percent of protein eluted from ATP-Sepharose column, read-out: Approximate IC50 for PCCA
T1 construct: a porcine liver proteome was run over an ATP-Sepharose™ column; from tissue; host or cells: porcine liver
T1 sequence (P0DTA4 53-730): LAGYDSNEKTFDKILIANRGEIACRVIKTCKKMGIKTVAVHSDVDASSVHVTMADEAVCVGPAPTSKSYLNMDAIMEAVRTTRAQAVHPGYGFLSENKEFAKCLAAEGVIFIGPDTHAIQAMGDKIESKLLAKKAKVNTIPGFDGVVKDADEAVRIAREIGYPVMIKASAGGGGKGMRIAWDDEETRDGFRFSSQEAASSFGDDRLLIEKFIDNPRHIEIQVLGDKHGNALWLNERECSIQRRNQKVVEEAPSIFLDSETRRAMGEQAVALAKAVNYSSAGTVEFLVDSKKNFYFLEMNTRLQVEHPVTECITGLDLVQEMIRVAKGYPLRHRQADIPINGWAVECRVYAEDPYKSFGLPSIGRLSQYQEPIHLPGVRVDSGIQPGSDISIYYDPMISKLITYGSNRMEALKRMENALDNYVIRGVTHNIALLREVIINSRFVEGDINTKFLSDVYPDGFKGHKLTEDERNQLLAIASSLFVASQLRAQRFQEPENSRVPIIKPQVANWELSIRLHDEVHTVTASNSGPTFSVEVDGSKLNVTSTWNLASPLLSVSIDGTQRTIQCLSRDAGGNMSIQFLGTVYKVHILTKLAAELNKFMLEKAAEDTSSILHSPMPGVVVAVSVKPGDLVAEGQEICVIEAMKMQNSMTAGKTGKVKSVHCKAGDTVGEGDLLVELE
T1 sequence (P79384 29-539 partner): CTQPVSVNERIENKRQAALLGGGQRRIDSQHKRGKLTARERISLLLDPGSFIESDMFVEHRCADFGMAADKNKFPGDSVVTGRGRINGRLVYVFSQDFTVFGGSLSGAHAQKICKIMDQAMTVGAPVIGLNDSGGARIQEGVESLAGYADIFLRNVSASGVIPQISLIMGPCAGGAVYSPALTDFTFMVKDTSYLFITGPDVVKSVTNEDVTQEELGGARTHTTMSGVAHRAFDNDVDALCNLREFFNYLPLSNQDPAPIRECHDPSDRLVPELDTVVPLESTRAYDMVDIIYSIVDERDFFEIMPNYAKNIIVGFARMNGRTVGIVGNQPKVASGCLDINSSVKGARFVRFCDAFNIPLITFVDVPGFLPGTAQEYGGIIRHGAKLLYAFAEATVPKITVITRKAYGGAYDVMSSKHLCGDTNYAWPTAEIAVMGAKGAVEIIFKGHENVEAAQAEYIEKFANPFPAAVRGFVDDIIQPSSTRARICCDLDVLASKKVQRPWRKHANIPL
Method: Similar experiments were carried out to compare the IC50 values for PYC, PCCA, and PCCB. In these trials, a porcine liver proteome was run over an ATP-Sepharose™ column to bind all purine-binding proteins. The ATP-Sepharose™ column was washed several times, and then eluted with the compound of Formula III at concentrations of 1 μM, 5 μM, 10 μM, 50 μM, 100 μM, and 500 μM to identify proteins that bound to this compound.
Gels were stained with a fluorescent stain such as sypro ruby (a highly sensitive fluorescent protein stain that can readily detect less than 1 fmol of total protein, i.e., less than 0.04 ng for a 40 kDa protein). The gels were imaged using a standard flat bed gel imager and the amount of protein estimated by densiometry. The percent of protein eluted from the column at each concentration was determined and IC50 values were calculated from these estimates. Where necessary, the eluted proteins were cut out of the gel, and identified using mass spectral techniques.
The values obtained were then compared to those for DHFR.

DHFR = target: T2, DHFR (Homo sapiens, UniProt P00374); assay: DHFR enzymatic assay; format: biochemical; conditions: determined by enzymatic assay
T2 sequence (P00374 1-187): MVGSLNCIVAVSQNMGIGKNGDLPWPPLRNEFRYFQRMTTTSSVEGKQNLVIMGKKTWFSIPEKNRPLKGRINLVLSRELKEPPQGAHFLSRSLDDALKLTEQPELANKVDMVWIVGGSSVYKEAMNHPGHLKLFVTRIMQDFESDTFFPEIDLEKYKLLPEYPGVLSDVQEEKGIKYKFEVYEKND

Row | pIC50 [1] | pIC50 (DHFR) | SMILES
1 | 5.70 | 8.00 | C#CCN(Cc1cnc2nc(N)nc(N)c2n1)c1ccc(C(=O)NC(CCC(=O)O)C(=O)O)cc1C (centres unmarked) [Formula III, 2-{4-[(2,4-diamino-pteridin-6-ylmethyl)-prop-2-ynyl-amino]-3-methyl-benzoylamino}-pentanedioic acid]
2 | 5.00 | 6.93 | C#CCN(Cc1cnc2nc(N)nc(N)c2n1)c1ccc(C(=O)NC(CCC(=O)O)C(=O)O)cc1OC(F)(F)F (centres unmarked) [Formula IX]
3 | 5.70 | 7.82 | Cc1cc(C(=O)NC(CCC(=O)O)C(=O)O)ccc1N(Cc1ccoc1)Cc1cnc2nc(N)nc(N)c2n1 (centres unmarked) [Formula VII]
4 | 5.70 | 7.82 | C#CCN(Cc1cnc2nc(N)nc(N)c2n1)c1ccc(C(=O)NC(CCC(=O)O)C(=O)O)cc1OC (centres unmarked) [Formula VIII]
